Measurements taken from PMC6934184, “Selective DNA-PKcs inhibition extends the therapeutic index of localized radiotherapy and chemotherapy” (The Journal of Clinical Investigation, 2019).

Target: T1, FGFR1 V561M (Homo sapiens, UniProt P11362, V561M)
T1 construct: purchased Thermo Fisher Scientific (Life Technologies) SelectScreen
Assay: SelectScreen LanthaScreen
Assay type: binding
Settings: read-out: % displacement
Procedure, shortened: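 SelectScreen broad panel; activity (Z'LYTE, Adapta) plus binding formats. ATP: Km app for CSF1R Z'LYTE; 10 for CAMK1 Adapta. Readout = % per kinase.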

T1 sequence (P11362 22-822 V561M): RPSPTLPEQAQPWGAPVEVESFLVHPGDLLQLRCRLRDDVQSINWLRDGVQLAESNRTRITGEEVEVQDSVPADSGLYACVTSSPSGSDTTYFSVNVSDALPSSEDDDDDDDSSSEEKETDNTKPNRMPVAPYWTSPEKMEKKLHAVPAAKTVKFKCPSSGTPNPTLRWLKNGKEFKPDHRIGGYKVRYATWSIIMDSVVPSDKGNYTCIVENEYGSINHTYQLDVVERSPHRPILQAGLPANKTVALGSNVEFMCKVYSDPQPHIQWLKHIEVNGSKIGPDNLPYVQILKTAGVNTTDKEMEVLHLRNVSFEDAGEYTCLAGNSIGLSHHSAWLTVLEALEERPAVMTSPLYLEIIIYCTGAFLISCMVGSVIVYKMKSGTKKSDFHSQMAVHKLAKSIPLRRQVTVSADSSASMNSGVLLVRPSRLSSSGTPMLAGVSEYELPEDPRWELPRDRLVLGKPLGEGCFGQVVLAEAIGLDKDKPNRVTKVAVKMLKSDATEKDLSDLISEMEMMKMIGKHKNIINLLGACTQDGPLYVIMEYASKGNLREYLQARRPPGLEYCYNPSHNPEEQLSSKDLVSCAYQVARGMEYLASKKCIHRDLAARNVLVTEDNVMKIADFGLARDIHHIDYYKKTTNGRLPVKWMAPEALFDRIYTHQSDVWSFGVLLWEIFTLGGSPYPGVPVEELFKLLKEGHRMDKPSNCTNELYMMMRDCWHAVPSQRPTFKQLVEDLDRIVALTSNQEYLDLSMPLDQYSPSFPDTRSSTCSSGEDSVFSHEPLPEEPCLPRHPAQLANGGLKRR

CN(C(=O)CN1CCOCC1)c1ccc2sc3c(-c4cccc5c(=O)cc(N6CC7CCC(C6)O7)oc45)cccc3c2c1 [NU5455] showed an inhibition at 1 µM of 5.1%.
